Assay results published in patent publication US20160058895A1, “RADIOLABELED GNRH ANTAGONISTS AS PET IMAGING AGENTS” (OSLO UNIVERSITETSSYKEHUS HF, priority 2013, published 2016).
Entries after “also recorded” stand apart in the source; their conditions may differ.

Tests used:
[1] = target: T1, human type I GnRH receptor (Homo sapiens, UniProt P30968); assay: Radioligand binding, cell membranes expressing human type I GnRH receptor, [125I]Triptorelin; conditions: Ki ± SD, n=3; competition with [125I]Triptorelin; read-out: Receptor affinity Ki for the human GnRH receptor
T1 construct: purchased Merck Millipore
T1 sequence (P30968 1-328): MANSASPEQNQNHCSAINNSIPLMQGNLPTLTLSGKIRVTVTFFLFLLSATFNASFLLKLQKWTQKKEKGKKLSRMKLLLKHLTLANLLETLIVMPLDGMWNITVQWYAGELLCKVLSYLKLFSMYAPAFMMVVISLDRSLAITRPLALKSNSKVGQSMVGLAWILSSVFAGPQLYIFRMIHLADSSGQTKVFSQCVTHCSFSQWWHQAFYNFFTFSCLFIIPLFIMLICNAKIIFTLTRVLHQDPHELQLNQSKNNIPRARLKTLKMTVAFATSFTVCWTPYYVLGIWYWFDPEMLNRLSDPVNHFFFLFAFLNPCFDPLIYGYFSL
Procedure: Radioligand binding studies were performed with 0.18-0.32 nM [^125I]LHRH-[D-Trp^6]
Further, binding curves for of compounds SB-001-RS, SB-002-RS, SB-003-RS, and SB-004-RS for the human GnRH receptor in competition for [^125I]Triptorelin were measured (n=3) (FIG. 3).

[2] = Stability in rat serum at 37° C., radio-HPLC; assay type: in vitro ADME; conditions: for % Intact 18F-compound, Serum 1 h / % Intact 18F-compound, Serum 2 h: 37° C.
Procedure: (§1) During the development of embodiments of the technology provided herein, a competitive binding assay was used to measure the binding affinity to rat GnRH receptor of the two nonradioactive reference ^19F-compounds described above. Radiolabeling was performed from [^18F]fluoride using the corresponding mesylate and chloro-precursors using K[^18F]/K222 complex in DMSO. Log P values and serum stability were investigated and their brain uptake was studied by small animal PET imaging in healthy rats.
(§2) Serum and in vivo stability measurements were performed as follows. Approximately 5 MBq of ^18F compounds (e.g., peptides or small molecules) in PBS (50 μL) was added to freshly collected rat serum (0.4 mL) and samples were incubated at 37° C. in Eppendorf tubes. After 1 hour and 2 hours, ice-cold ethanol (400 μL) was added and the mixtures were centrifuged at 13,400 rpm for 10 minutes. The resulting supernatants were diluted with Solvent A and analyzed by radio-HPLC.
(§3) Also, the stabilities of the compounds were measured in rat serum and in vivo in rat blood and urine (Table 2). Table 2 provides the fraction (as a percentage of the initial amount) of compound remaining in serum, blood, or urine as a function of time (e.g., after 1 and 2 hours).

[3] = Brain uptake by small animal PET imaging in healthy rats; assay type: in vivo, rat; conditions: for Brain uptake (in words): healthy rats
Source text: In particular, PET images (e.g., 90-minute summed PET images) of the brain of a Sprague-Dawley rat injected with an [^18F] compound according to an embodiment of the technology show accumulation of the compound in the central regions of the brain.
as §1

[4] = Log D / Log P of pilot compounds, experimentally determined; assay type: physicochemical; conditions: for logP: n-octanol / phosphate-buffered saline, pilot 18F compounds
Procedure: (§4) PSA was calculated using ChemBioDraw Ultra 12.0; Clog D was experimentally determined; Ki was determined by an in vitro assay in HEK 293 cells expressing rat GnRH receptor (see below); the radiochemical yield with respect to isotope decay was corrected based on the start of synthesis, and radiochemical purity was analyzed by Radio-HPLC.
as §4, with “In Table 1, PSA” for “PSA”, “receptor;” for “receptor (see below);”, “to” for “based on”, “Radio HPLC.” for “Radio-HPLC.”
as §1

rat GnRH receptor = target: T2, rat GnRH receptor (Rattus norvegicus, UniProt P30969); assay: Radioligand binding, membranes of HEK 293 cells expressing rat GnRH receptor, [125I] LH-RH Dtrp6
T2 construct: expressed in transfected cells; host or cells: HEK 293 cells (transient transfection, membranes prepared 48 h later)
T2 sequence (P30969 1-327): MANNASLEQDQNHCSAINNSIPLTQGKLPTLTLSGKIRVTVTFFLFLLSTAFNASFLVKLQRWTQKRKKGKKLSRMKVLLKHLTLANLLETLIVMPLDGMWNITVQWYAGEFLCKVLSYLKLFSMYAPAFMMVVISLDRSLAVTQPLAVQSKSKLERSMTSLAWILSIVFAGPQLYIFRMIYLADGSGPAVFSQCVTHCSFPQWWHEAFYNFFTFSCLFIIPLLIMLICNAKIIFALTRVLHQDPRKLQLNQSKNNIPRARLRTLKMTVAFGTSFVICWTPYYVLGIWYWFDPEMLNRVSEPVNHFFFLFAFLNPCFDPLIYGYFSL
Procedure: as §4
For the membrane preparation and radioligand binding assays, HEK 293 cells were grown in Dulbecco's modified Eagle's medium with 10% fetal bovine serum, penicillin (100 U/ml), and streptomycin (100 μg/ml), and transiently transfected with rat GnRH receptor using LipofectAMINE 2000 (Invitrogen) according to the manufacturer's protocol. 48 hours later, membranes were prepared and radioligand binding was performed as previously described (see, e.g., Krobert et al (2001) “The cloned human 5-HT7 receptor splice variants: a comparative characterization of their pharmacology, function and distribution” Naunyn Schmiedebergs Arch Pharmacol 363(6): 620-32). Radioligand binding studies were performed with 0.18-0.32 nM [^125I] […]
as §4, with “In Table 1, PSA” for “PSA”, “receptor;” for “receptor (see below);”, “to” for “based on”, “Radio HPLC. […]” for “Radio-HPLC.”

[5] = Octanol/water partition coefficient, PBS (pH 7.4)/n-octanol; assay type: physicochemical; conditions: phosphate-buffered saline (pH 7.4)/n-octanol, n=3
Procedure: Octanol/water partition coefficients were determined as follows. Approximately 10 kBq of ^18F-compounds in 50 μL PBS were diluted in 450 μL of PBS (pH 7.4) and added to 500 μL of n-octanol in an Eppendorf tube (n=3). After vortexing for 3 minutes, the tubes were centrifuged (10,300 rpm for 6 minutes) and 100 μL aliquots of the PBS and n-octanol phases were carefully transferred to separate tubes. The radioactivity of the samples was counted in a γ-counter.
Log P values were measured in a phosphate-buffered saline (pH 7.4)/n-octanol system.

[6] = In vivo stability in rat blood and urine; conditions: for % Intact 18F-compound, Blood 1 h: rat blood; for % Intact 18F-compound, Urine 1 h: rat urine
Procedure: as §2, §3

Row | SMILES | Ki [1] [nM] | % Intact 18F-compound, Serum 1 h ([2]; rat serum) [%] | % Intact 18F-compound, Serum 2 h ([2]; rat serum) [%] | logP [5] | % Intact 18F-compound, Blood 1 h [6] [%] | % Intact 18F-compound, Urine 1 h [6] [%] | further results
1 | COc1cc(NCCCF)cc(OC)c1NC(=O)c1ccc(Cc2cc3c(cc2C)CCCC3(C)C)o1 [SB-001-RS, N-(4-((3-fluoropropyl)amino)-2,6-dimethoxyphenyl)-5-((3,8,8-trimethyl-5,6,7,8-tetrahydronaphthalen-2-yl)methyl)furan-2-carboxamide] | 3.7 ± 2.3 | – | – | – | – | – | –
2 | COc1cc(NCCCF)cc(OC)c1NC(=O)c1ccc(Oc2cc3c(cc2C)CCC3(C)C)o1 [SB-002-RS, N-(4-((3-fluoropropyl)amino)-2,6-dimethoxyphenyl)-5-((3,3,6-trimethyl-2,3-dihydro-1H-inden-5-yl)oxy)furan-2-carboxamide] | 1.5 ± 3.9 | – | – | – | – | – | –
3 | COc1cc(OCCF)cc(OC)c1NC(=O)c1ccc(Cc2cc3c(cc2C)CCCC3(C)C)o1 [SB-003-RS, N-(4-(2-fluoroethoxy)-2,6-dimethoxyphenyl)-5-((3,8,8-trimethyl-5,6,7,8-tetrahydronaphthalen-2-yl)methyl)furan-2-carboxamide] | 0.6 ± 0.4 | – | – | – | – | – | –
4 | COc1cc(OCCF)cc(OC)c1NC(=O)c1ccc(Oc2cc3c(cc2C)CCC3(C)C)o1 [SB-004-RS, N-(4-(2-fluoroethoxy)-2,6-dimethoxyphenyl)-5-((3,3,6-trimethyl-2,3-dihydro-1H-inden-5-yl)oxy)furan-2-carboxamide] | 2.1 ± 2.1 | – | – | – | – | – | –
5 | COc1nc(OCC[18F])nc(OC)c1NC(=O)c1ccc(Oc2cc3c(cc2C)CCC3(C)C)o1 [[^18F]SB7-65-18] | – | – | – | – | – | – | Stability in rat serum ([2]; rat serum, over 2 hours): stable; Brain uptake (in words) [3]: failed to show significant brain uptake; logP ([4]; pH 7.4): 1.3; logD ([4]; pH 7.4, experimentally determined, read-out: CLog D (pH 7.4)): 1.22; Ki (rat GnRH receptor): 1.36 nM
6 | COc1nc([18F])nc(OC)c1NC(=O)c1ccc(Oc2cc3c(cc2C)CCC3(C)C)o1 [[^18F]SB7-65-19] | – | – | – | – | – | – | half-life at 11.1 MBq/mL ([2]; rat, serum, hydrolysis of the amide bond, read-out: Serum stability t1/2): < 30 min; Brain uptake (in words) [3]: entered the brain and was clearly visibly by PET; also recorded: significant brain uptake; Brain (CNS) uptake ([3]; rat, at 10 minutes): 0.4 % ID/g; CLog D (pH 7.4) ([4]; experimentally determined): 1.33; logP ([4]; pH 7.4): 1.4; Ki (rat GnRH receptor): 42 nM
7 | COc1cc(NCCCF)cc(OC)c1NC(=O)c1ccc(Oc2cc3c(cc2C)CCC3(C)C)o1 [[^18F]SB-002-RS, N-(4-((3-fluoropropyl)amino)-2,6-dimethoxyphenyl)-5-((3,3,6-trimethyl-2,3-dihydro-1H-inden-5-yl)oxy)furan-2-carboxamide] | – | 99.1 | 97.5 | 1.49 | 97 | 99 | –
8 | COc1cc(OCCF)cc(OC)c1NC(=O)c1ccc(Oc2cc3c(cc2C)CCC3(C)C)o1 [[^18F]SB-004-RS, N-(4-(2-fluoroethoxy)-2,6-dimethoxyphenyl)-5-((3,3,6-trimethyl-2,3-dihydro-1H-inden-5-yl)oxy)furan-2-carboxamide] | – | >95 | 97.3 | 1.82 | 97.5 | 99 | –

More lines, main results first:

Row | Ki [1] [nM] | % Intact 18F-compound, Serum 1 h ([2]; rat serum) [%] | % Intact 18F-compound, Serum 2 h ([2]; rat serum) [%] | logP [5] | % Intact 18F-compound, Blood 1 h [6] [%] | % Intact 18F-compound, Urine 1 h [6] [%] | SMILES | further results
9 | – | >95 | 88.5 | 1.43 | 81 | 94.5 | COc1cc(NCCCF)cc(OC)c1NC(=O)c1ccc(Cc2cc3c(cc2C)CCCC3(C)C)o1 [[^18F]SB-001-RS, N-(4-((3-fluoropropyl)amino)-2,6-dimethoxyphenyl)-5-((3,8,8-trimethyl-5,6,7,8-tetrahydronaphthalen-2-yl)methyl)furan-2-carboxamide] | –
10 | – | >95 | 91.1 | 1.68 | 88.1 | 18.5 | COc1cc(OCCF)cc(OC)c1NC(=O)c1ccc(Cc2cc3c(cc2C)CCCC3(C)C)o1 [[^18F]SB-003-RS, N-(4-(2-fluoroethoxy)-2,6-dimethoxyphenyl)-5-((3,8,8-trimethyl-5,6,7,8-tetrahydronaphthalen-2-yl)methyl)furan-2-carboxamide] | –
